Assay results from patent US20230219939A1, “N-(1-CYANO-PYRROLIDIN-3-YL)-5-(3-(TRIFLUOROMETHYL)PHENYL)OXAZOLE-2-CARBOXAMIDE DERIVATIVES AND THE CORRESPONDING OXADIAZOLE DERIVATIVES AS USP30 INHIBITORS FOR THE TREATMENT OF MITOCHONDRIAL DYSFUNCTION” (MISSION THERAPEUTICS LIMITED, priority 2020, published 2023).
Values joined by “and” are separate entries in the source; they are usually repeats but may differ in a detail not shown here. Equal values may be shown once. Read-outs that look alike come from different tables or passages of the source.

Legend:
USP30 = molecular target: T1, USP30 (Homo sapiens, UniProt Q70CQ3); assay: USP30 biochemical IC50 assay (fluorescence polarisation)
T1 construct: purchased Boston Biochem E582
T1 sequence (Q70CQ3 57-517 limits assumed): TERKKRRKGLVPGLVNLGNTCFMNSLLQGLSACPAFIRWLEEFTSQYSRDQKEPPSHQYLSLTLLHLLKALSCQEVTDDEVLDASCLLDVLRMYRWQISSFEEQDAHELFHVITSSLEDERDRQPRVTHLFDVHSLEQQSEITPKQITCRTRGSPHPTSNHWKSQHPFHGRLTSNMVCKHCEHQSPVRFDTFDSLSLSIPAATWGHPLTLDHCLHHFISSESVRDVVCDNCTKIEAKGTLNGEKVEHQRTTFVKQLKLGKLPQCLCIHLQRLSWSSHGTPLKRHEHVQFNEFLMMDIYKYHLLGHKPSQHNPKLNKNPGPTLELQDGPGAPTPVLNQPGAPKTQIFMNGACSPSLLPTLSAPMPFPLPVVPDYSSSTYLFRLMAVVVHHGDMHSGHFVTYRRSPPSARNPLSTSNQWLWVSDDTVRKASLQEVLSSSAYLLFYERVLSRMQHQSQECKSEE
Procedure: Dilution plates were prepared at 21 times the final concentration (2100 μM for a final concentration of 100 μM) in 50% DMSO in a 96-well polypropylene V-bottom plate (Greiner #651201). A typical 8-point dilution series would be 100, 30, 10, 3, 1, 0.3, 0.1, 0.03 μM final. Reactions were performed in duplicate in black 384 well plates (small volume, Greiner 784076) in a final reaction volume of 21 μl. Either 1 μl of 50% DMSO or diluted compound was added to the plate. USP30 (Boston Biochem #E582) was diluted in reaction buffer (40 mM Tris, pH 7.5, 0.005% Tween 20, 0.5 mg/ml BSA, 5 mM beta-mercaptoethanol) to achieve a final assay concentration of 4 nM, and 10 μl of diluted USP30 was added to the compound. Enzyme and compound were incubated for 30 min at room temp. Reactions were initiated by the addition of 50 nM of TAMRA labelled peptide linked to ubiquitin via an iso-peptide bond as fluorescence polarisation substrate. Reactions were read immediately after addition of substrate and following a 2-hour incubation at room temperature. Readings were performed on a Pherastar Plus (BMG Labtech). λ Excitation 540 nm; λ Emission 590 nm.

Cathepsin B = Cathepsin B (Homo sapiens, UniProt P07858); assay: Cathepsin B IC50; type: biochemical
Cathepsins B, K, L, S, V = assay: Cathepsin panel IC50 (summary over B, K, L, S, V); type: biochemical
[1] = tested on: HCT116 human colorectal carcinoma cells; assay: In vitro cytotoxicity (Cell Tox), alamarBlue; type: cell-based; conditions: HCT-116, 96-hour continual compound exposure
Text: There is also a need for compounds that have a favourable safety profile, which may be measured by a variety of standard in vitro and in vivo methods. A cell toxicity counter-screen may be used to assay the anti-proliferative/cytotoxic effect in a particular cell line (e.g. HCT116) by fluorometric detection of rezasurin (alamarBlue™) to resofurin in response to mitochondrial activity.
Measured in HCT116 human colorectal carcinoma cells using alamarBlue™ as the assay endpoint. Compound cytotoxicity was measured over a period of 96-hour continual compound exposure.

Turbidimetric solubility = type: physicochemical; conditions: aqueous buffer, kinetic from dmso stock
Text: Turbidimetric solubility: Test compound solution prepared in DMSO diluted into aqueous buffer.
Turbidimetry is used as the end-point by measuring absorbance at 620 nm.

mouse hepatocytes = assay: Hepatocyte Cl mouse; type: in vitro ADME
Procedure: Hep Cl mouse: in vitro hepatocyte clearance in mouse cells.
Clu: in vitro clearance. Clu as defined here is the scaled clearance, in turn calculated from the intrinsic clearance. The intrinsic clearance is the predicted clearance due to hepatic metabolic reactions, determined from incubation of a compound in a hepatocyte preparation.

PK mouse 10 mg/kg PO = type: in vivo
Text: Oral F: Oral bioavailability.

TOM20 ubiquitylation = assay: TOM20-ubiquitylation assay; type: cell-based, human; conditions: Antimycin A/oligomycin mitophagy trigger
Text: Human cell lines can be challenged with mitochondrial depolarizing agents (ionophores (eg. CCCP, valinomycin), mitochondrial complex inhibitors (oligomycin, antimycin A)) to induce ubiquitylation of TOM20, which is then further promoted in the presence of USP30 inhibitors. TOM20 ubiquitylation is subsequently assessed through western blotting of the cell lysates, with TOM20 ubiquitylation adduct detection possible due to an 8 kDa molecule weight increase for each molecule of ubiquitin added, resulting in laddering of a TOM20 immunoreactive band. TOM20-ubiquitylation levels can be quantified using chemiluminescence densitometry of laddered immunoreactive bands.

[2] = Brain microdialysis PK 30 mg/kg PO mouse; type: in vivo
Text: Kpuu is the ratio of unbound drug in brain to unbound drug in plasma and may be indicative of potential for treating peripheral and/or CNS indications.

COC[C@@H]1C[C@@H](NC(=O)c2ncc(-c3cccc(C(F)(F)F)c3)o2)CN1C#N [Example 1, N-((3R,5S)-1-Cyano-5-(methoxymethyl)-pyrrolidin-3-yl)-5-(3-(trifluoromethyl)phenyl)oxazole-2-carboxamide]
IC50 (USP30; USP30 biochemical IC50 assay, read-out: USP30 IC50): 0.009 µM
IC50 (USP30; read-out: DUB IC50 (μM) USP30): 0.009 µM and 0.004 to 0.033 µM
IC50 (Cathepsin B): 122 µM
Selectivity preference for USP30 v cathepsins (Cathepsins B, K, L, S, V): >1133
IC50 (Cathepsins B, K, L, S, V; range over the five cathepsins, read-out: Cathepsin IC50 (μM) B, K, L, S, V): 10.2 to 138 µM
EC50 [1]: > 30000 nM
solubility (Turbidimetric solubility): > 100 µM
Hepatocyte Cl mouse Scaled Clu (mouse hepatocytes): 81 mL/min/kg
hepatocyte metabolic stability compared to Reference Examples A and B (in words) (mouse hepatocytes): significantly improved hepatocyte metabolic stability
Unbound plasma Cmax/TOM20-Ub cell potency (PK mouse 10 mg/kg PO; 10 mg/kg PO dose - mouse): 41-fold
bioavailability (PK mouse 10 mg/kg PO; plasma, po, mouse 10 mg/kg, read-out: Oral F (%)): 82%
TOM20-Ub 1.5-fold gain EC1.5x (TOM20 ubiquitylation): 0.020 µM
Kp uu ([2]; Brain microdialysis PK 30 mg/kg PO - mouse): 1.2
pre-frontal cortex Cmax, u/cell TOM20-Ub ([2]; Brain microdialysis PK 30 mg/kg PO mouse): 23-fold
